Assay results: US6680025B2, “Device and method for photoactivation” (Cerus Corporation, priority 1989, dated 2004)

Columns and labels:
tRNA = experiment: Photobinding of BIOMIP to tRNA, biotin detection (BluGene); format: binding; details: 100 μg/ml, irradiated 30 minutes CE-III; no signal from unirradiated controls
Experimental: This example describes photobinding of ^3H-AMIP, ^3H-AMDMIP and BIOMIP to RNA. A tRNA stock was prepared at a concentration of 765 μg/ml in 1×TE/10 mM NaCl. Appropriate amounts of each compound were prepared in separate reaction vessels such that upon addition of 200 μl of the tRNA solution (153 μg) the final concentration of each compound was 100 μg/ml. […] were used in the experiment; the BIOMIP used was unlabelled. Each reaction vessel was then irradiated for 30 minutes at 25° C. in the CE-III device. Identical unirradiated reaction mixtures were used as controls for each compound. Following irradiation, each mixture was extracted with CHCl3 (4×200 μl ) then precipitated (×2). The pellets were resuspended in 1×TE and the binding levels determined as follows. For the two labelled compounds (^3H-AMDMIP and ^3H-AMIP), the nucleic acid concentration was determined optically and radioactivity measured by scintillation counting of aliquots of the stock solutions. Binding of the compounds was then calculated to be as follows:
To determine if binding of BIOMIP to tRNA has occurred, it was necessary to use a non-radioactive format which detected the biotin moiety on the compound. A commercial kit (“BluGene”; BRL) was used for this purpose. The kit instructions were followed for detection of both the control DNA (supplied with the kit) and BIOMIP treated tRNA. […]

[1] = system: PCR product (primer pair SK-38/39 analogs); experiment: Post-amplification sterilization with AMT; format: biochemical; details: AMT 100 μg/ml, irradiated CE-III; 10^4 to 10^10 copies carried over; 30 cycles
Experimental: A PCR sample is prepared for amplification with the following changes. Instead of AMDMIP, AMT is added prior to amplification at a concentration of 100 μg/ml. Instead of primer pair SK-38/39, the biotinylated analogs, in which biotin has been appended to the 5′ end of one or both primers via an intervening tetraethylenglycol bridge (ester linkage to the biotin), are used. Following 30 cycles of PCR, the reaction vessel is exposed to 300-400 nm light on the CE-III device. Following irradiation, the PCR reaction vessel is opened and the PCR product removed. Free primer is then removed by spinning the PCR reaction mix through a Centricon 100 (Amicon Division, W R Grace & Co., Danvers, Mass.). […] After immobilization, the PCR product is detected with a commercially available biotin detection systems (BluGene Detection System; catalog #8179 SA; BRL). […]
PCR reagents are added and the samples reamplified for 30 cycles, and α-^32P-dCTP is present during the amplification. Following PCR, the reamplified samples are analyzed by denaturing PAGE as described above.
In a third method, a solution of AMT (100 μg/ml) is prepared and irradiated for 15 minutes on the CE-III device. […] The mix is then amplified for 30 cycles in the presence of α-^32P-dCTP, then analyzed by PAGE, as above. […]

Q: “5-N-(N,N′-Dimethyl-(6-{biotinamido}-hexanoate)-1,6-hexanediamine])-methyl-isopsoralen [BIOMIP]” was tested. Which “binding to tRNA by biotin detection” value (tRNA) did it give?
A: covalently bound to the tRNA

Q: For `Cc1oc2c(C)c3oc(=O)cc(C)c3cc2c1CN` [AMT, 4′-aminomethyl-4,5′,8-trimethylpsoralen], which “reamplification of treated PCR product” value [1] is on record?
A: does not reamplify
